Reference: ChEMBL document CHEMBL1152014, “Synthesis of thiophenol derivatives as inhibitors of human collagenase” (Bioorg Med Chem Lett, 1995)

Target: T1, Interstitial collagenase (Homo sapiens, UniProt P03956)
T1 sequence (P03956 whole entry): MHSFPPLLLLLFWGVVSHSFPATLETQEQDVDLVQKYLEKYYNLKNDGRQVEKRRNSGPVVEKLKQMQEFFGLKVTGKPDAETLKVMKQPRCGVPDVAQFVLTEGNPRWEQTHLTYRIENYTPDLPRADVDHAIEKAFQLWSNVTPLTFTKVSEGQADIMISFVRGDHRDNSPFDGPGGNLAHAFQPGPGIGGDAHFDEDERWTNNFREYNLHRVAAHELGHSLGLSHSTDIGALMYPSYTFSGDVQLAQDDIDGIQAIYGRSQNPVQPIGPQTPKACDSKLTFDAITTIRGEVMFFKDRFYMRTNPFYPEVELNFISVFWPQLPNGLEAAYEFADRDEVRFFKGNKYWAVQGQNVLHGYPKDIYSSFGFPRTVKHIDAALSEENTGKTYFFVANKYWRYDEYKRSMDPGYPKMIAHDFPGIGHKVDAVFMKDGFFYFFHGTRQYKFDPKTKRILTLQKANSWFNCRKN
Test: Inhibitory activity was tested against human collagenase (MMP-1)

| Structure (SMILES) | IC50 [µM] |
| --- | --- |
| CNC(=O)[C@H](Cc1ccc(OC)cc1)NC(=O)C(Cc1ccc(OC)cc1S)CC(C)C (stereo not given in full) | 0.14 |
| CNC(=O)[C@H](Cc1ccc(OC)cc1)NC(=O)[C@@H](Cc1cccc(OC)c1S)CC(C)C | 0.22 |
| CNC(=O)[C@H](Cc1ccc(OC)cc1)NC(=O)C(Cc1c(S)cccc1Cl)CC(C)C (stereo not given in full) | 0.32 |
| CC(C)CC(Cc1ccccc1S)C(=O)NC1CCCCCCCCCCNC1=O (stereo not given) | > 100 |
| CNC(=O)[C@H](Cc1ccc(OC)cc1)NC(=O)[C@H](CC(C)C)[C@H](C)S | 0.017 |
| CNC(=O)[C@H](Cc1ccc(OC)cc1)NC(=O)C(Cc1ccc(Cl)cc1S)CC(C)C (stereo not given in full) | 0.23 |
| CNC(=O)[C@H](Cc1ccccc1)NC(=O)[C@H](Cc1ccccc1S)CC(C)C | 0.03 |
| CNC(=O)[C@H](Cc1ccc(OC)cc1)NC(=O)C(Cc1cccc(C(F)(F)F)c1S)CC(C)C (stereo not given in full) | 0.29 |
| CNC(=O)[C@H](Cc1ccc(OC)cc1)NC(=O)[C@H](CC(C)C)[C@@H](S)c1ccccc1 | 0.27 |
| CNC(=O)[C@H](Cc1ccccc1)NC(=O)[C@@H](Cc1ccccc1S)CC(C)C | 1.1 |

Other lines, results leading:

| IC50 [µM] | Structure (SMILES) |
| --- | --- |
| 0.055 | CNC(=O)[C@H](Cc1ccc(OC)cc1)NC(=O)[C@H](Cc1ccccc1S)CC(C)C |
| 0.16 | CNC(=O)[C@H](Cc1ccc(OC)cc1)NC(=O)[C@H](Cc1cccc(OC)c1S)CC(C)C |
| > 100 | CNC(=O)[C@H](Cc1ccc(OC)cc1)NC(=O)C(Cc1ccc[nH]c1=S)CC(C)C (stereo not given in full) |
| 0.34 | CNC(=O)[C@H](Cc1ccc(OC)cc1)NC(=O)[C@@H](Cc1ccccc1S)CC(C)C |
| 0.33 | CNC(=O)[C@H](Cc1ccc(OC)cc1)NC(=O)C(Cc1cccc(Cl)c1S)CC(C)C (stereo not given in full) |
